From publication PMC5651866, “Halogenated Chrysins Inhibit Dengue and Zika Virus Infectivity” (Scientific Reports, 2017)

How the values were obtained:
[1] = system: DENV2; settings: cell-based assay; cited from earlier work
[2] = system: DENV2 NGC; experiment: Primary screening: compounds added to DENV2 infected LLC/MK2 cells, plaque titration of culture supernatants; format: cell-based, Dengue virus; settings: for inhibition of virus production: 10 μM and 25 μM, summary of Table 1; for inhibition at 10 µM / inhibition at 25 µM: Dengue virus, DENV2, LLC-MK2, read-out: DENV2 inhibition (%, means ± SEM)
Protocol: In this study, we selected 8 flavonoid derivatives (Fig. 1) and tested their effect on DENV2 NGC in a LLC/MK2 cell-based system. Briefly, the compounds at final concentrations of 10 μM and 25 μM in DMSO were added to DENV2 infected LLC/MK2 cells and the effect on viral particle production was measured by plaque titration of the culture supernatants. […] We also tested cytotoxicity of FV13, FV14, and CH1 to verify the viral inhibition in LLC/MK2 cells (Table 2). The viabilities of FV13 treated cells were 81.00 ± 2.69% and 59.40 ± 2.42%, at 10, and 25 µM respectively, whereas the values for FV14 treated cells were 60.24 ± 3.31% and 60.86 ± 3.57%. We also examined Vero, THP-1, HepG2, and HEK-293 cell viabilities in the presence of selected compounds (Table 2).
LLC/MK2 cells were seeded at 5 × 10^4 cells into each well of 24-well plate and incubated overnight at 37 °C under 5% CO2. Cells were infected with DENV2 at the multiplicity of infection (M.O.I.) of 0.1, unless indicated otherwise, for 1 h with gentle rocking every 15 min. Cells were washed with phosphate buffer saline (PBS) and incubated with 1 ml of MEM medium supplemented with 1% FBS as previously described. The compounds were prepared in dimethylsulfoxide (DMSO) at the indicated concentrations before addition to viral infected cells. Supernatants were collected after 5 day incubation and analyzed by plaque titration. In primary screening, DMSO-treated cells served as the untreated control. Compounds that inhibited virus production by ≥90% were selected for further characterization.

[3] = Cytotoxicity study (CellTiter 96 AQueous One) in LLC/MK2 cells; format: cell-based; settings: rhesus monkey; for viability at 48 h, 10 µM / viability at 48 h, 25 µM: read-out: Cells viability (%, means ± SEM) LLC/MK2
Protocol: (§1) The cytotoxicity of active compounds was tested on LLC-MK2, Vero, THP-1, HEK-293, HepG2 and C6/36 cell lines. Each cell line was seeded at 1 × 10^4 cells per well in 96-well plates and incubated overnight. The compounds were added at the indicated concentrations and the cells were incubated for 48 h, unless indicated otherwise. Cell viability was analyzed using CellTiter 96® AQueous One Solution Cell Proliferation Assay kit (Promega, Wisconsin-Madison, USA) according to manufacturer’s protocol. The plate was read at the A 450 in a VICTORTM × 3 microplate reader (PerkinElmer, Massachusetts, USA). Percent cell viability in compound-treated wells was calculated using reference DMSO-treated cells as a 100% cell viability control. The CC50 values of LLC/MK2 cells were calculated using nonlinear regression analysis. Results were reported as means and standard error of the means (SEM) of CC50 values of three independent experiments in which each drug concentration was tested in triplicate.

[4] = Cytotoxicity study (CellTiter 96 AQueous One) in Vero cells; format: cell-based; settings: African green monkey, 48 h, read-out: Cells viability (%, means ± SEM) Vero
Protocol: as §1

[5] = system: Vero cells; experiment: as above; format: cell-based; settings: 10 and 25 µM; in words
Protocol: as §1

[6] = Cytotoxicity study (CellTiter 96 AQueous One) in THP-1 cells; format: cell-based; settings: human, read-out: Cells viability (%, means ± SEM) THP-1
Protocol: as §1

[7] = Cytotoxicity study (CellTiter 96 AQueous One) in HepG2 cells; format: cell-based; settings: human, read-out: Cells viability (%, means ± SEM) HepG2
Protocol: as §1

[8] = Cytotoxicity study (CellTiter 96 AQueous One) in HEK-293 cells; format: cell-based; settings: human, read-out: Cells viability (%, means ± SEM) HEK-293
Protocol: as §1

[9] = parameters: method as in PMID 27098862, PMID 19397994; settings: animals and humans; in words; cited from earlier work
[10] = system: LLC/MK2 cells; experiment: Cytotoxicity study (CellTiter 96 AQueous One) in LLC/MK2 cells; format: cell-based; settings: LLC/MK2 cell viability at 120 h versus 48 h; in words
Protocol: as §1

[11] = system: DENV1 (16007); experiment: Antiviral efficacy (EC50) in virus infected LLC/MK2 cells, plaque assay; format: cell-based, Dengue virus; settings: Dengue virus, DENV1, LLC-MK2
Protocol: (§2) Compound at various concentrations were added to virus infected LLC/MK2 cells and viral titers were accessed by plaque titration of supernatants as previously described.
(§3) LLC/MK2 cells were seeded at 5 × 10^4 cells into each well of 24-well plate and incubated overnight at 37 °C under 5% CO2. Cells were infected with DENV2 at the multiplicity of infection (M.O.I.) of 0.1, unless indicated otherwise, for 1 h with gentle rocking every 15 min. Cells were washed with phosphate buffer saline (PBS) and incubated with 1 ml of MEM medium supplemented with 1% FBS as previously described. The compounds were prepared in dimethylsulfoxide (DMSO) at the indicated concentrations before addition to viral infected cells. Supernatants were collected after 5 day incubation and analyzed by plaque titration[9].
(§4) Compounds were prepared in DMSO at 8–12 different concentrations and added to virus infected cells as previously described. Supernatants were collected and the EC50 values were calculated from nonlinear regression analysis.

[12] = system: DENV2 (NGC); experiment: as above; format: cell-based, Dengue virus
Protocol: as §2, §3, §4

[13] = system: DENV3 (16562); experiment: as above; format: cell-based, Dengue virus
Protocol: as §2, §3, §4

[14] = system: DENV4 (c0036); experiment: as above; format: cell-based, Dengue virus
Protocol: as §2, §3, §4

[15] = system: ZIKV (SV0010/15); experiment: as above; format: cell-based, Zika virus
Protocol: as §2, §3, §4

[16] = Cytotoxicity study, summary statements over human-derived cell lines; format: cell-based; settings: HepG2 and HEK-293 cells, THP-1, HepG2, HEK-293, 10 and 25 µM, Table 2
Protocol: as §1

[17] = system: BHK-21/DENV2 replicon cells; experiment: Replicon inhibition assay, RT-qPCR of replicon RNA; format: cell-based; settings: Dengue virus, DENV2, BHK-21, 72 h, read-out: inhibition of DENV2 replicon replication
Protocol: Next, we studied FV13 inhibition in a DENV2 replicon replication system to investigate whether translation and replication could be implicated as drug targets. BHK-21/DENV2 replicon cells[28] were treated with 5 and 10 µM FV13 and incubated for 72 h before measuring replication efficiency by quantifying replicon RNA. Ribavirin, a known dengue virus replication inhibitor[29], was used as a positive control.
After supernatant collection, the remaining cells in experimental plates were extracted for viral RNAs using TRIzol reagent (Invitrogen, California, USA) according to the manufacturer’s protocol. The samples were loaded into the Direct-zol™ RNA MiniPrep (Zymo research, California, USA) and quantified by Nanodrop spectrophotometry (Eppendorf, New York, USA). The RT-qPCR was performed with a Step-OnePlus Real-Time PCR System (Applied Biosystems, California, USA.) with 1 × Power SYBRGreen PCR Master Mix, 400 nM each of capsid primers[40] or 250 nM of NS1 primers[41] and 0.1 µg of total RNA. The reactions were then cycled at 48 °C 30 min and 95 °C 10 min, followed by 45 cycles of 95 °C for 20 s (denaturation), 55 °C for 30 s (annealing), 72 °C for 30 s (extension). Each sample was analyzed in triplicated and results were confirmed by two independent experiments.
BHK-21 cells expressing a DENV2 replicon (BHK-21/DENV2) were maintained in minimal essential medium (MEM) supplemented with 10% fetal bovine serum (FBS), and 0.3 mg/ml G418 (Bio Basic Canada, Ontario, Canada). The protocol was adapted from Boonyasuppayakorn et al., 2014 [28]. Briefly, cells (5 × 10^4/well) were seeded into 24-well plates and were incubated for 1 day at 37 °C in a humidified CO2 chamber followed by addition of the compounds in 1% DMSO at final concentrations of 5 µM and 10 µM. DMSO (1%) alone was used as the no-inhibitor control (0% inhibition) and the reference compound was ribavirin (TargetMol, Massachusetts, USA) at a final concentration of 5 µM or 10 µM. Cells were incubated at 37 °C for 72 h and lysed to quantify DENV2 replicons by RT-qPCR. Data were reported as percent inhibition compared with ribavirin, as a reference compound and DMSO, 0% inhibition. Results were confirmed by three independent experiments.

For O=C(O)[C@H]1O[C@@H](Oc2cc3oc(-c4ccccc4)cc(=O)c3c(O)c2O)[C@H](O)[C@@H](O)[C@@H]1O [Baicalin], the EC50 [1] is given as 30.2 µM.

With COc1ccc(/C=C/C(=O)c2ccccc2O)cc1 [CH1] the “inhibition of virus production” value [2] was > 99%, the inhibition at 10 µM [2] was 99.78 ± 0.08% and the inhibition at 25 µM [2] was 99.75 ± 0.15%. For the same compound, the viability at 48 h, 10 µM [3] was 61.5 ± 6.43%, the viability at 48 h, 25 µM [3] was 59.1 ± 7.42% and the viability at 48 h, 10 µM [4] was > 100%. The viability at 48 h, 25 µM [4] was 80.4 ± 9.81%, the “sensitivity of Vero cells to the compound” value [5] was “not” and the viability at 48 h, 10 µM [6] was 93.1 ± 4.99%. The viability at 48 h, 25 µM [6] was 84.8 ± 2.38%, the viability at 48 h, 10 µM [7] was 71 ± 1.71% and the viability at 48 h, 25 µM [7] was 35.3 ± 1.34%. The viability at 48 h, 10 µM [8] was 98.3 ± 2.95% and the viability at 48 h, 25 µM [8] was 41.3 ± 0.54%.

Work on O=C(/C=C/c1ccc(O)cc1)c1ccccc1O [CH2] yielded an inhibition at 10 µM [2] of 52 ± 8.49% and an inhibition at 25 µM [2] of 76 ± 4.24%.

In the case of COc1cc(O)c2c(c1)OC(c1ccccc1)CC2=O (stereo not shown) [FN2], the inhibition at 10 µM [2] is reported as 62 ± 2.45% and the inhibition at 25 µM [2] is reported as 85 ± 3%.

In the case of O=c1cc(-c2ccccc2)oc2cc(O)cc(O)c12 [FV2, 5,7-dihydroxyflavone], the inhibition at 10 µM [2] is given as 43 ± 3%, the inhibition at 25 µM [2] is given as 92.8 ± 3.06% and the oral bioavailability [9] is given as “poor”.

Compound COc1cc(O)c2c(=O)c(OC)c(-c3ccccc3)oc2c1 [FV4] has an inhibition at 10 µM [2] of 38 ± 6.48% and an inhibition at 25 µM [2] of 61 ± 3%.

Work on COc1cc(OC)c2c(=O)cc(-c3ccccc3)oc2c1 [FV6] yielded an inhibition at 10 µM [2] of 55 ± 3% and an inhibition at 25 µM [2] of 76 ± 7.35%.

With O=c1cc(-c2ccccc2)oc2c(I)c(O)c(I)c(O)c12 [FV14, 6,8-diiodo-5,7-dihydroxyflavone] the “inhibition of virus production” value [2] was > 99%, the inhibition at 10 µM [2] was 99.48 ± 0.43% and the inhibition at 25 µM [2] was 99.63 ± 0.03%. The viability at 48 h, 10 µM ([3]; LLC/MK2 cells) was 60.2 ± 3.31%, the viability at 48 h, 25 µM ([3]; LLC/MK2 cells) was 60.9 ± 3.57% and the CC50 at 48 h ([3]; LLC/MK2 cells, 48 h incubation, read-out: CC50 (cytotoxic concentration)) was 42.5 ± 2.53 µM. The “effect of long term incubation on cytotoxicity” value [10] was “significantly greater cytotoxicity at 120 h”, the viability at 48 h, 10 µM ([4]; Vero cells) was 45.4 ± 1.17% and the viability at 48 h, 25 µM ([4]; Vero cells) was 34.1 ± 2.18%. For the same compound, the “sensitivity of Vero cells to the compound” value [5] was “very sensitive”, the viability at 48 h, 10 µM ([6]; THP-1 cells) was 86.1 ± 2.76% and the viability at 48 h, 25 µM ([6]; THP-1 cells) was 93.9 ± 7%. The viability at 48 h, 10 µM ([7]; HepG2 cells) was 85.6 ± 3.04%, the viability at 48 h, 25 µM ([7]; HepG2 cells) was 87.01 ± 0.52% and the viability at 48 h, 10 µM ([8]; HEK-293 cells) was 80.5 ± 3.18%. For the same compound, the viability at 48 h, 25 µM ([8]; HEK-293 cells) was 48.4 ± 5.76%, the EC50 [11] was 2.3 ± 0.92 µM and the “S.I. Selectivity index (CC50/EC50)” value ([12]; DENV2 (NGC), CC50 in LLC/MK2) was 20.37. The EC50 ([12]; Dengue virus, DENV2, LLC-MK2) was 2.19 ± 0.31 µM, the “S.I. Selectivity index (CC50/EC50)” value ([13]; DENV3 (16562), CC50 in LLC/MK2) was 43.64 and the EC50 ([13]; Dengue virus, DENV3, LLC-MK2) was 1.02 ± 0.31 µM. The “S.I. Selectivity index (CC50/EC50)” value ([14]; DENV4 (c0036), CC50 in LLC/MK2) was 34.50, the EC50 ([14]; Dengue virus, DENV4, LLC-MK2) was 1.29 ± 0.6 µM and the “S.I. Selectivity index (CC50/EC50)” value ([15]; CC50 in LLC/MK2) was 32.14. The EC50 ([15]; Zika virus, LLC/MK2, plaque assay in 24-well plates) was 1.39 ± 0.11 µM and the viability at 48 h [16] was > 80%.

For O=C1C[C@@H](c2ccc(O)cc2)Oc2cc(O)cc(O)c21 [Naringenin], the EC50 [1] is given as 18 µM.

For O=c1cc(-c2ccccc2)oc2cc(O)c(O)c(O)c12 [baicalein], the EC50 [1] is given as 23.9 µM.

For O=c1c(O)c(-c2ccc(O)c(O)c2)oc2cc(O)ccc12 [fisetin], the EC50 [1] is given as 192 µM.

In the case of O=c1c(O)c(-c2ccc(O)c(O)c2)oc2cc(O)cc(O)c12 [quercetin], the EC50 [1] is given as 118 µM.

NC(=O)c1ncn([C@@H]2O[C@H](CO)[C@@H](O)[C@H]2O)n1 [ribavirin, reference compound] showed an inhibition at 5 µM [17] of 87.4 ± 10.7% and an inhibition at 10 µM [17] of 89.9 ± 4.83%.
